This assay deals with Potassium channel subfamily K member 9 (Homo sapiens, UniProt Q9NPC2). The assay can be described thus: Inhibition of Recombinant TASK-1 and TASK-3 In Vitro: The investigations on the inhibition of the recombinant TASK-1 and TASK-3 channels were conducted using stably transfected CHO cells. The compounds according to the invention were tested in this case by application of 40 mM potassium chloride in the presence of a voltage-sensitive dye according to the method described in detail in the following references [Whiteaker et al., Validation of FLIPR membrane potential dye for high-throughput screening of potassium channel modulators, J. Biomol. Screen. 6 (5), 305-312 (2001); Molecular Devices FLIPR Application Note: Measuring membrane potential using the FLIPR® membrane potential assay kit on Fluorometric Imaging Plate Reader (FLIPR®) systems, http://www.moleculardevices.com/reagents-supplies/assay-kits/ion-channels/flipr-membrane-potential-assay-kits]. The activity of the test substances was determined as their ability to inhibit a depolarization induced in the recombinant cells by 40 mM potassium chloride. The concentration which can block half of this depolarization is referred to as IC50. Format: cell-based.
Chain of Potassium channel subfamily K member 9 (Q9NPC2 whole entry): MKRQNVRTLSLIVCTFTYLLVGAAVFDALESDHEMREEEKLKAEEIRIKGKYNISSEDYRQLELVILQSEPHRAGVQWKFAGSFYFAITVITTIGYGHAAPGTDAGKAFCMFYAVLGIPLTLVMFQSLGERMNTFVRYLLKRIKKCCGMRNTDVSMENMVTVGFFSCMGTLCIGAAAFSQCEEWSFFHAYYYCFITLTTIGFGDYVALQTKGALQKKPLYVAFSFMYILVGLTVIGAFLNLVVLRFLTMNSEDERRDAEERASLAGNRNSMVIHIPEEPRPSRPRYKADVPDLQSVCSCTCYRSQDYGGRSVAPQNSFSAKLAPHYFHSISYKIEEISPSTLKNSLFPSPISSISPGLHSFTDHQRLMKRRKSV

Results on one compound are retold here after ChEMBL document CHEMBL5728687, “Diazabicyclic substituted imidazopyrimidines and their use for the treatment of breathing disorders” (2021).

For the compound `CNc1cccc(C(=O)N2C3CCC2CN(Cc2c(-c4ccc(Cl)cc4)nc4ncccn24)C3)n1`, the IC50 stood at 1500 nM.

One may read the IC50 as the concentration at which inhibition is half-maximal.
